Earlier results as cited in US20210128561A1, “MRGX Receptor Antagonists” (Rheinische-Friedrich-Wilhelms-Universität Bonn, priority 2019, published 2021).
Like-named read-outs stand apart in the source and are kept apart here.

Tests used:
[1] = biological target: T1, MrgX2 (Homo sapiens, UniProt Q96LB1); settings: read-out: EC50 value; calcium assays, MrgX2 activation; cited from earlier work
T1 construct: host or cells: recombinant HEK cells (A3); CHEM1 cells recombinantly expressing MrgX2 (A11)
T1 sequence (Q96LB1 1-330): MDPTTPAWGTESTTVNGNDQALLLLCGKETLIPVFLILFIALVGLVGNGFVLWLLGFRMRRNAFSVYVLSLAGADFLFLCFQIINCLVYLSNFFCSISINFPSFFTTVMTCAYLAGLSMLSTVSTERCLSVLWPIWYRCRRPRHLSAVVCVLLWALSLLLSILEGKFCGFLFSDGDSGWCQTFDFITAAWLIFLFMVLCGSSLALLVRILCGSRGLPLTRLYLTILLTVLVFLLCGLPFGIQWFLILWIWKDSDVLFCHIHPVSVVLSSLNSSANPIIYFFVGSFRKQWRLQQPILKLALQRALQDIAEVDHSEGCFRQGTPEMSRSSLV

[2] = test system: human LAD2 mast cells; settings: cited from earlier work
[3] = biological target: T1, MrgX2; settings: β-arrestin assay; cited from earlier work
[4] = biological target: T1, MrgX2; settings: calcium mobilization assay; cited from earlier work
[5] = biological target: T1, MrgX2; settings: calcium assays; cited from earlier work
[6] = biological target: T1, MrgX2; settings: versus CST-14, calcium mobilization; cited from earlier work
[7] = biological target: T1, MrgX2; settings: CHEM1 cell line recombinantly expressing MrgX2; cited from earlier work
[8] = test system: CHEM1 cells without MrgX2 overexpression; settings: cited from earlier work

COc1ccc2c(c1)[C@@]13CCCC[C@H]1[C@@H](C2)NCC3 [3-methoxymorphinan]
EC50 [1]: 4700 nM

C[C@H]1O[C@@H](O[C@H]2CC[C@@]3(C)[C@@H](CC[C@]4(C)[C@@H]3C=C[C@]35OC[C@@]6(CCC(C)(C)C[C@H]63)[C@@H](O)C[C@]54C)[C@]2(C)CO)[C@H](O)[C@@H](O[C@@H]2O[C@H](CO)[C@@H](O)[C@H](O)[C@H]2O)[C@H]1O [saikosaponin A, Saikosaponin A]
β-hexosaminidase release of substance P and saikosaponin A together ([2]; 0.50 μM saikosaponin A vs. 30 μg/mL (≈31.2 μM) compound 48/80, LAD2): 30%

O=C(/C=C/c1ccc(O)cc1)c1ccc(O)cc1O [isoliquiritigenin, Isoliquiritigenin]
β-hexosaminidase release of compound 48/80 and isoliquiritigenin together ([2]; 50 μM isoliquiritigenin vs. 30 μg/mL (≈31.2 μM) compound 48/80, LAD2): 40%

CN1CC[C@]23c4c5ccc(O)c4O[C@H]2[C@@H](O)C=C[C@H]3[C@H]1C5 [morphine]
EC50 [1]: 4500 nM

CN1CC[C@]2(c3cccc(O)c3)Cc3nc4ccccc4cc3C[C@H]2C1 [TAN-67]
EC50 [3]: ~1000 nM | EC50 [4]: ~1000 nM

C[C@@H]1C[C@H]2Cc3ncc(-c4ccc5c(n4)C[C@@H]4C[C@@H](C)C[C@]56NCCC[C@H]46)cc3[C@]3(C1)NCCC[C@H]23 [Complanadine A]
EC50 [5]: 5500 nM

O=c1c2ccccc2[nH]c(=S)n1Cc1ccccn1 [compound 2, 3-(pyridine-2-ylmethyl)-2-thioxo-2,3-dihydro-4H-1λ^2-quinazolin-4-one]
IC50 [6]: 2500 nM

CN1CC[C@@]23CCCC[C@@H]2[C@@H]1Cc1ccc(O)cc13 [dextrorphan]
EC50 [1]: 1400 nM

CC(=O)N1c2ccccc2Nc2ccccc21 [Compound 1, 1-(5H-10λ^2-phenazin-5-yl)ethan-lone]
IC50 [6]: 1600 nM

B1: CXCL14: small chemokine (C-X-C motif) ligand 14 (protein, UniProt O95715 35-111, looked up)
C-X-C motif chemokine 14: SKCKCSRKGPKIRYSDVKKLEMKPKYPHCEEKMVIITTKSVSRYRGQEHCLHPKLQSTKRFIKWYNAWNEKRRVYEE
EC50 [7]: 570 nM | calcium release [8]: not to mediate calcium release
